# What was measured:
# [1] = Stability test of BTG 1640 salts: purity under preservation conditions; type: physicochemical
# Experimental: Samples of 100 mg each of BTG 1640 hydrochloride were subjected to the following preservation conditions:
# The purities were then analyzed periodically, initially every three months, in order to underline possible variations.
# Samples of 100 mg each of BTG 1640 fumarate prepared according to example 1C were subjected to the following preservation conditions:
# Quarterly and in an overall period of nine months its purity was then analyzed in order to underline possible variations. The results in the following Table 3 were obtained:
# As comparison other salts of BTG 1640 were prepared, and exactly: • BTG 1640 methanesulphonate • BTG 1640 maleate • BTG 1640 succinate following the procedure indicated in example 1 and substituting methanesolphonic, maleic and succinic acids for fumaric acid.
# The stabilities were then evaluated by subjecting samples of 100 mg of each salt to the following analogous preservation conditions:
# Quarterly and in an overall period of nine months their purity was then analyzed in order to underline possible variations.
# The obtained results, together with those obtained in Example 2 for hydrochloride, in Example 3 for fumarate in order to make easier the comparison, were in Table 5 and represented in FIGS. 5-8.
# [2] = Stability test of BTG 1640 salts: evaluation of total impurities; type: physicochemical
# Experimental: Contemporaneously, the impurity analysis in the conditions a)-d) of T/% RH were carried out.
# As a confirmation of such evidence, a test for the evaluation of the impurity percentage of the sample subjected to the same conditions a)-d) of T/% RH was parallely carried out. The experimental values in Table 4 were obtained.
# [3] = Absorption kinetic: plasma concentration of BTG 1640 after oral gavage; type: in vivo, rats Sprague Dawley; settings: rats, oral gavage 10 mg/kg (as free base)
# Experimental: Absorption extent and rate of molecule BTG 1640 in its forms of fumarate and hydrochloride salts were evaluated.
# With this intent, the two salts were dispersed in an aqueous suspension of arabic gum at 5% thus obtaining two formulations, each one orally administered through oesophageous gavage at dose of 10 mg/kg (expressed as free base of BTG 1640) to five rats Sprague Dawley.
# Plasma concentration of molecule BTG 1640 was determined at different time points.
# female CD-1 mice = experiment: Acute oral toxicity; type: in vivo; settings: female CD-1 mice, oral gavage 2000 mg/kg bw
# Experimental: Acute oral toxicity of salts hydrochloride and fumarate of BTG-1640 was evaluated.
# The two salts were dispersed in an aqueous suspension, thus obtaining two formulations, each one orally administered through oesophageous gavage at dose of 2000 mg/kg bw (expressed as free base of BTG 1640) to one of two groups comprising three female CD-1 mice per group.
# The observation lasted 14 days.
# [4] = T = 25° C., humidity 60% RH, time 0
# [5] = T = 25° C., humidity 60% RH, time 3 (months)
# [6] = T = 25° C., humidity 60% RH, time 6 (months)
# [7] = T = 25° C., humidity 60% RH, time 9 (months)
# [8] = T = 25° C., humidity 60% RH, time 12 (months)
# [9] = T = 25° C., humidity 60% RH, time 18 (months)
# [10] = T = 25° C., humidity 60% RH, time 24 (months)
# [11] = T = 25° C., humidity 60% RH, time 36 (months)
# [12] = T = 30° C., humidity 65% RH, time 0
# [13] = T = 30° C., humidity 65% RH, time 3 (months)
# [14] = T = 30° C., humidity 65% RH, time 6 (months)
# [15] = T = 30° C., humidity 65% RH, time 9 (months)
# [16] = T = 30° C., humidity 65% RH, time 12 (months)
# [17] = T = 40° C., humidity 75% RH, time 0
# [18] = T = 40° C., humidity 75% RH, time 3 (months)
# [19] = T = 40° C., humidity 75% RH, time 6 (months)
structure (smiles),measurement,setting,value
CN1OC2CCCC(=O)C2C1Cc1ccccc1.Cl (stereo not shown) [BTG 1640 hydrochloride],Purity %,"[1]; T = 5° C., time 0",99.3%
same,Purity %,"[1]; T = 5° C., time 3 (months)",100.1%
same,Purity %,"[1]; T = 5° C., time 6 (months)",100.3%
same,Purity %,"[1]; T = 5° C., time 9 (months)",99.6%
same,Purity %,"[1]; T = 5° C., time 12 (months)",99.6%
same,Purity %,"[1]; T = 5° C., time 18 (months)",100.8%
same,Purity %,"[1]; T = 5° C., time 24 (months)",98.8%
same,Purity %,"[1]; T = 5° C., time 36 (months)",99.8%
same,Purity %,[1]; [4],99.7%
same,Purity %,[1]; [5],100.9%
same,Purity %,[1]; [6],101.5%
same,Purity %,[1]; [7],99.3%
same,Purity %,[1]; [8],101.1%
same,Purity %,[1]; [9],100.5%
same,Purity %,[1]; [10],99.3%
same,Purity %,[1]; [11],99.5%
same,Purity %,[1]; [12],99.7%
same,Purity %,[1]; [13],100.0%
same,Purity %,[1]; [14],100.9%
same,Purity %,[1]; [15],100.6%
same,Purity %,[1]; [16],99.9%
same,Purity %,[1]; [17],99.7%
same,Purity %,[1]; [18],93.4%
same,Purity %,[1]; [19],81.2%
same,Stability (in words),[1]; condition d): 40° C. and 75% RH,strong instability
same,Stability (in words),"[1]; conditions a)-c): 5° C., 25° C./60% RH, 30° C./65% RH",good stability
same,validity time period,"[1]; on the basis of the stability results, preserved at 2-8° C.",12 months
same,Stability (in words),[1]; temperatures higher than 30° C.,unstable
same,% impurities,"[2]; T = 5° C., time 0",0.36%
same,% impurities,"[2]; T = 5° C., time 3 (months)",0.58%
same,% impurities,"[2]; T = 5° C., time 6 (months)",0.45%
same,% impurities,"[2]; T = 5° C., time 9 (months)",0.31%
same,% impurities,"[2]; T = 5° C., time 12 (months)",0.31%
same,% impurities,"[2]; T = 5° C., time 18 (months)",0.1%
same,% impurities,"[2]; T = 5° C., time 24 (months)",0.21%
same,% impurities,"[2]; T = 5° C., time 36 (months)",0.18%
same,% impurities,[2]; [4],0.36%
same,% impurities,[2]; [5],0.43%
same,% impurities,[2]; [6],0.87%
same,% impurities,[2]; [7],0.24%
same,% impurities,[2]; [8],0.34%
same,% impurities,[2]; [9],0.13%
same,% impurities,[2]; [10],0.28%
same,% impurities,[2]; [11],0.30%
same,% impurities,[2]; [12],0.36%
same,% impurities,[2]; [13],0.44%
same,% impurities,[2]; [14],0.52%
same,% impurities,[2]; [15],0.12%
same,% impurities,[2]; [16],0.76%
same,% impurities,[2]; [17],0.36%
same,% impurities,[2]; [18],6.99%
same,% impurities,[2]; [19],17.31%
same,Impurities (in words),[2]; condition d): 40° C./75% RH,unacceptable percentage of impurities
same,BTG 1640 free base concentration in plasma,[3]; 2 minutes,0.7402 µg/mL
same,BTG 1640 free base concentration in plasma,[3]; 5 minutes,1.4242 µg/mL
same,BTG 1640 free base concentration in plasma,[3]; 30 minutes,0.2354 µg/mL
same,BTG 1640 free base concentration in plasma,[3]; 90 minutes,0.1184 µg/mL
same,BTG 1640 free base concentration in plasma,[3]; 300 minutes,0 µg/mL
same,Clinical signs,female CD-1 mice,"Lethargy, ataxia, aggressiveness and vocalization"
same,Histopathological examination of kidneys,female CD-1 mice,"small foci of acute tubular necrosis in the cortex, balloon degeneration of the epithelium and dilatation of convoluted tubules"
same,Lethality,female CD-1 mice; 14 days observation,lethal in two animals out of three

# — patent US20100069450A1, “SALT OF 3-BENZYL-2-METHYL-2,3,3A,4,5,6,7, 7A- OCTAHYDROBENZO[D]ISOXAZOL-4-ONE” (ABIOGEN PHARMA S.P.A, priority 2006, published 2010)
